In patent US12630534B2 (TAKEDA PHARMACEUTICAL COMPANY LIMITED, priority 2020, dated 2026):

Target: T1, human GPR139 (Homo sapiens, UniProt Q6DWJ6)
T1 construct: expressed in transfected cells; host or cells: CHO-TREx (Life Technologies) cells, expression induced with doxycycline
T1 sequence (Q6DWJ6 1-353): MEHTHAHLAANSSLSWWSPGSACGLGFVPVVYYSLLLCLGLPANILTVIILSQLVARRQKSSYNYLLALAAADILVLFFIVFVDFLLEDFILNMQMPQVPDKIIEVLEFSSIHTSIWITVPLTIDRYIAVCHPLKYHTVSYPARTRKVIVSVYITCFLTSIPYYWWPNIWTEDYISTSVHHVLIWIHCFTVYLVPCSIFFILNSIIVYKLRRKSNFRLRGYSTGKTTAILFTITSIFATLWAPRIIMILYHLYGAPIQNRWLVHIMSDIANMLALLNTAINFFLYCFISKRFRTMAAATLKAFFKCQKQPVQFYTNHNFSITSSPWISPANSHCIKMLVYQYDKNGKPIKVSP
Assay: Inhibition rate of the amount of IP1 in GPR139-expressed CHO cells (inverse agonist assay, Test Example 2)
Type: cell-based
Conditions: CHO, relative value, inhibition rate of Example Compound 2 in Test Example 1 defined as 100%
How it was run: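 IP1 accumulation read by IP-One HTRF after 40 min compound exposure at 37° C in stimulation buffer, 2000 cells/well, GPR139 expression induced the day before with doxycycline. Results given as relative inhibition rate, normalised to a reference compound set at […].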

inhibition at 30 µM [%]	SMILES
101	CCn1ncc(Cn2ccn(-c3cc(N4CCO[C@H](C)C4)cc(C(F)(F)F)c3F)c2=O)c1C [Example 13, 1-[(1-ethyl-5-methyl-1H-pyrazol-4-yl)methyl]-3-{2-fluoro-5-[(2R)-2-methylmorpholin-4-yl]-3-(trifluoromethyl)phenyl}-1,3-dihydro-2H-imidazol-2-one]
99	CC(C)n1cc(Cn2ccn(-c3nc(N4CCO[C@H](C)C4)cc(C(F)(F)F)c3F)c2=O)cn1 [Example 75, 1-{3-fluoro-6-[(2R)-2-methylmorpholin-4-yl]-4-(trifluoromethyl)pyridin-2-yl}-3-{[1-(propan-2-yl)-1H-pyrazol-4-yl]methyl}-1,3-dihydro-2H-imidazol-2-one]
103	CCn1cc(Cn2ccn(-c3cc(N(C)C4CCOCC4)cc(C(C)(C)F)c3F)c2=O)cn1 [Example 122, 1-[(1-ethyl-1H-pyrazol-4-yl)methyl]-3-{2-fluoro-3-(2-fluoropropan-2-yl)-5-[methyl(oxan-4-yl)amino]phenyl}-1,3-dihydro-2H-imidazol-2-one]
98	CCn1cc(Cn2ccn(-c3cc(N4CCC(F)(F)CC4)cc(N4CCC(F)(F)CC4)c3F)c2=O)cn1 [Example 152, 1-[3,5-bis(4,4-difluoropiperidin-1-yl)-2-fluorophenyl]-3-[(1-ethyl-1H-pyrazol-4-yl)methyl]-1,3-dihydro-2H-imidazol-2-one]
100	CCn1cc(Cn2ccn(-c3cc(N4CCO[C@H](C)C4)cc(C4CC4)c3F)c2=O)cn1 [Example 44, 1-{3-cyclopropyl-2-fluoro-5-[(2R)-2-methylmorpholin-4-yl]phenyl}-3-[(1-ethyl-1H-pyrazol-4-yl)methyl]-1,3-dihydro-2H-imidazol-2-one]
100	CCn1cc(Cn2ccn(-c3cc(N4C[C@@H](C)O[C@H](C)C4)cc(C(F)(F)F)c3F)c2=O)cn1 [Example 34, 1-{5-[(2R,6R)-2,6-dimethylmorpholin-4-yl]-2-fluoro-3-(trifluoromethyl)phenyl}-3-[(1-ethyl-1H-pyrazol-4-yl)methyl]-1,3-dihydro-2H-imidazol-2-one]
99	CCn1cc(Cn2cc(C)n(-c3cc(N4CCO[C@H](C)C4)cc(C(F)(F)F)c3)c2=O)cn1 [Example 14, 1-[(1-ethyl-1H-pyrazol-4-yl)methyl]-4-methyl-3-{3-[(2R)-2-methylmorpholin-4-yl]-5-(trifluoromethyl)phenyl}-1,3-dihydro-2H-imidazol-2-one]
103	CCn1cc(Cn2ccn(-c3cc(N(C)C4CCOCC4)cc(C(C)(C)O)c3F)c2=O)cn1 [Example 113, 1-[(1-ethyl-1H-pyrazol-4-yl)methyl]-3-{2-fluoro-3-(2-hydroxypropan-2-yl)-5-[methyl(oxan-4-yl)amino]phenyl}-1,3-dihydro-2H-imidazol-2-one]
101	CCn1cc(Cn2c(C)cn(-c3cc(N4CCO[C@H](C)C4)cc(OCC(F)(F)F)c3F)c2=O)cn1 [Example 55, 3-[(1-ethyl-1H-pyrazol-4-yl)methyl]-1-{2-fluoro-5-[(2R)-2-methylmorpholin-4-yl]-3-(2,2,2-trifluoroethoxy)phenyl}-4-methyl-1,3-dihydro-2H-imidazol-2-one]

Further lines, the molecule ahead of its results:

SMILES	inhibition at 30 µM [%]
Cc1nn(-c2cc(N3CCO[C@H](C)C3)cc(C(F)(F)F)c2F)c(=O)n1Cc1cnn(C(C)C)c1 [Example 91, 2-{2-fluoro-5-[(2R)-2-methylmorpholine-4-yl]-3-(trifluoromethyl)phenyl}-5-methyl-4-{[1-(propane-2-yl)-1H-pyrazole-4-yl]methyl}-2,4-dihydro-3H-1,2,4-triazole-3-one]	100
CCn1cc(Cn2c(C)cn(-c3nc(N4CCOC(C)(C)C4)cc(C(F)(F)F)c3C)c2=O)cn1 [Example 120, 1-[6-(2,2-dimethylmorpholin-4-yl)-3-methyl-4-(trifluoromethyl)pyridin-2-yl]-3-[(1-ethyl-1H-pyrazol-4-yl)methyl]-4-methyl-1,3-dihydro-2H-imidazol-2-one]	102
CCn1cc(Cn2cc(C)n(-c3cc(N4CCOC(F)(F)C4)cc(C(F)(F)F)c3)c2=O)cn1 [Example 41, 3-[3-(2,2-difluoromorpholin-4-yl)-5-(trifluoromethyl)phenyl]-1-[(1-ethyl-1H-pyrazol-4-yl)methyl]-4-methyl-1,3-dihydro-2H-imidazol-2-one]	101
CCn1cc(Cn2c(C)cn(-c3nc(N4CCO[C@H](C)C4)cc(C(F)(F)F)c3Cl)c2=O)cn1 [Example 84, 1-{3-chloro-6-[(2R)-2-methylmorpholin-4-yl]-4-(trifluoromethyl)pyridin-2-yl}-3-[(1-ethyl-1H-pyrazol-4-yl)methyl]-4-methyl-1,3-dihydro-2H-imidazol-2-one]	99
Cc1cn(-c2cc(N3CCO[C@H](C)C3)cc(C(F)F)c2F)c(=O)n1Cc1cnn(C(C)C)c1 [Example 98, 1-{3-(difluoromethyl)-2-fluoro-5-[(2R)-2-methylmorpholin-4-yl]phenyl}-4-methyl-3-{[1-(propan-2-yl)-1H-pyrazol-4-yl]methyl}-1,3-dihydro-2H-imidazol-2-one]	99
CCn1cc(Cn2cc(C)n(-c3cc(OCC4(F)CCC4)cc(C(F)(F)F)c3)c2=O)cn1 [Example 52, 1-[(1-ethyl-1H-pyrazol-4-yl)methyl]-3-{3-[(1-fluorocyclobutyl)methoxy]-5-(trifluoromethyl)phenyl}-4-methyl-1,3-dihydro-2H-imidazol-2-one]	99
Cc1nn(-c2cc(N3CCC(F)(F)C3)cc(C(F)(F)F)c2F)c(=O)n1Cc1cnn(C(C)C)c1 [Example 94, 2-[5-(3,3-difluoropyrrolidin-1-yl)-2-fluoro-3-(trifluoromethyl)phenyl]-5-methyl-4-{[1-(propan-2-yl)-1H-pyrazol-4-yl]methyl}-2,4-dihydro-3H-1,2,4-triazol-3-one]	99
CCn1cc(Cn2cc(C)n(-c3cc(C(F)(F)F)c(F)c(N4CCO[C@H](C)C4)n3)c2=O)cn1 [Example 149, 1-[(1-ethyl-1H-pyrazol-4-yl)methyl]-3-{5-fluoro-6-[(2R)-2-methylmorpholin-4-yl]-4-(trifluoromethyl)pyridin-2-yl}-4-methyl-1,3-dihydro-2H-imidazol-2-one]	101
CCn1cc(Cn2cc(C)n(-c3cc(Br)cc(OCC4CC(F)(F)C4)c3)c2=O)cn1 [Example 65, 3-{3-bromo-5-[(3,3-difluorocyclobutyl)methoxy]phenyl}-1-[(1-ethyl-1H-pyrazol-4-yl)methyl]-4-methyl-1,3-dihydro-2H-imidazol-2-one]	98
Cc1cn(Cc2cnn(C(C)C)c2)c(=O)n1-c1cc(OC[C@@H]2CCCO2)cc(C(F)(F)F)c1 [Example 101, 4-methyl-3-[3-{[(2S)-oxolan-2-yl]methoxy}-5-(trifluoromethyl)phenyl]-1-{[1-(propan-2-yl)-1H-pyrazol-4-yl]methyl}-1,3-dihydro-2H-imidazol-2-one]	99

Same assay, conditions: relative value, inhibition rate of Example Compound 2 in Test Example 1 defined as 100%, 30 µM

Inhibition Rate at 30 μM [%]	SMILES
101	CCn1cc(Cn2ccn(-c3cc(-c4ccc(F)cc4)cc(C4CC4(F)F)c3F)c2=O)cn1 (centres unmarked) [Example 144, 1-[5-(2,2-difluorocyclopropyl)-4,4′-difluoro[1,1′-biphenyl]-3-yl]-3-[(1-ethyl-1H-pyrazol-4-yl)methyl]-1,3-dihydro-2H-imidazol-2-one]
